Assay results: patent US20220073536A1 (Rigel Pharmaceuticals, Inc., priority 2003, published 2022)
Values belong to the molecule of their own block, whether it stands above or below them.

Tests used:
[1] = system: cultured human mast cells (CHMC); test: CHMC low cell density IgE activation: tryptase assay; assay type: cell-based; conditions: low cell density CHMC, IgE activation
Outline: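 CHMC at 1000–1500 cells/well were preincubated 1 hr at 37° C., stimulated with anti-IgE for 30 minutes at 37° C., then pelleted. Supernatant tryptase was measured with a fluorogenic substrate after 30 min at room temperature, against un-stimulated control wells.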

[2] = system: cultured human mast cells (CHMC); test: CHMC low cell density ionomycin activation: tryptase assay; assay type: cell-based; conditions: low cell density CHMC, 3 pt, read-out: LD Tryptase, CHMC, Iono, 3 pt
[3] = Homo sapiens, Mast cell, tryptase release, 3 pt, read-out: LD Tryptase, CHMC, IgE, 3 pt
[4] = Homo sapiens, Mast cell, tryptase release, 8 pt, read-out: LD Tryptase, CHMC, IgE, 8 pt
[5] = Homo sapiens, Mast cell, tryptase release
[6] = tryptase release, 3 pt, read-out: LD Tryptase, CHMC, IgE, 3 pt
[7] = tryptase release, 8 pt, read-out: LD Tryptase, CHMC, IgE, 8 pt
[8] = Homo sapiens, Mast cell, tryptase, 3 pt, read-out: LD Tryptase, CHMC, IgE, 3 pt
[9] = Homo sapiens, Mast cell, tryptase
[10] = tryptase, 3 pt, read-out: LD Tryptase, CHMC, IgE, 3 pt
[11] = Homo sapiens, Mast cell, tryptase, 8 pt, read-out: LD Tryptase, CHMC, IgE, 8 pt

Structure (SMILES): COc1ccc(Nc2ncc(F)c(Nc3ccc4c(c3)NC(=O)CS4)n2)cc1Cl [Compound 257]
IC50 [1, 3]: < 10 µM
IC50 [1, 4]: < 10 µM
IC50 [2, 5]: > 10 µM

Structure (SMILES): CNC(=O)COc1cccc(Nc2ncc(F)c(Nc3ccc4c(c3)NCCS4)n2)c1 [Compound 258, N4-(3,4-Dihydro-2H,4H-benzo[1,4]thiazin-6-yl)-5-fluoro-N2-[3-(N-methylamino)carbonylmethyleneoxyphenyl]-2,4-pyrimidinediamine]
IC50 [1, 6]: < 10 µM
IC50 [1, 7]: < 10 µM
IC50 ([2]; tryptase release): > 10 µM

Structure (SMILES): CNC(=O)COc1cccc(Nc2ncc(F)c(Nc3ccc4c(c3)N(C)C(=O)CS4)n2)c1 [Compound 259, 5-Fluoro-N2-[3-(N-methylamino)carbonylmethyleneoxyphenyl]-N4-(4-methyl-3-oxo-2H-benzo[1,4]thiazin-6-yl)-2,4-pyrimidinediamine]
IC50 [1, 6]: < 10 µM
IC50 [1, 7]: < 10 µM
IC50 ([2]; tryptase release): > 10 µM

Structure (SMILES): NC(=S)c1cccc(Nc2ncc(F)c(Nc3ccc4c(c3)NC(=O)C(CCO)O4)n2)c1 (centres unmarked) [Compound 262, N2-(3-Benzothioamide)-5-fluoro-N4-[2-(2-hydroxyethyl)-3-oxo-2H,4H-benz[1,4]oxazin-6-yl]-2,4-pyrimidinediamine]
IC50 [1, 6]: < 10 µM
IC50 ([2]; tryptase release): > 10 µM

Structure (SMILES): CNC(=O)COc1cccc(Nc2ncc(F)c(N(C)c3ccc4c(c3)OCCO4)n2)c1 [Compound 385, N4-(3,4-Ethylenedioxyphenyl)-5-fluoro-N4-methyl-N2-[3-(N-methylamino)carbonylmethyleneoxyphenyl]-2,4-pyrimidinediamine]
IC50 [1, 10]: < 10 µM
IC50 ([1]; tryptase, 8 pt, read-out: LD Tryptase, CHMC, IgE, 8 pt): < 10 µM
IC50 ([2]; tryptase): > 10 µM

Structure (SMILES): COc1cc(Nc2ncc(F)c(N(C)c3ccc4c(c3)OCCO4)n2)cc(OC)c1 [Compound 386]
IC50 [1, 8]: < 10 µM
IC50 [1, 11]: < 10 µM
IC50 [2, 9]: > 10 µM

Structure (SMILES): COc1cc(Nc2nc(Nc3cccc4cc(C(=O)NC(C)(C)CO)[nH]c34)ncc2F)cc(OC)c1 [Compound 389, N4-(3,5-Dimethoxyphenyl)-N2-[2-(N-1,1-dimethyl-2-hydroxyethylamino)carbonylindol-7-yl]-5-fluoro-2,4-pyrimidinediamine]
IC50 [1, 10]: < 10 µM
IC50 ([2]; tryptase): > 10 µM

Structure (SMILES): CN(c1ccc2c(c1)OCCO2)c1nc(Cl)ncc1F [Compound 390]
IC50 [1, 8]: > 10 µM
IC50 [2, 9]: > 10 µM

Structure (SMILES): COC(=O)c1cc2cc(Nc3ncc(F)c(N(C)c4ccc5c(c4)OCCO5)n3)ccc2o1 [Compound 395]
IC50 [1, 8]: < 10 µM
IC50 [1, 11]: < 10 µM
IC50 [2, 9]: < 10 µM

Second part, the molecule after the results:

IC50 [1, 3]: < 10 µM
IC50 [1, 4]: < 10 µM
IC50 [2, 5]: > 10 µM
Structure (SMILES): COc1cc(Nc2ncc(F)c(Nc3ccc4c(c3)N(C)C(=O)CS4)n2)cc(OC)c1 [Compound 260]

IC50 [1, 6]: < 10 µM
IC50 ([2]; tryptase release): > 10 µM
Structure (SMILES): NC(=S)c1cccc(Nc2ncc(F)c(Nc3ccc4c(c3)NC(=O)CO4)n2)c1 [Compound 261, N2-(3-Benzothioamide)-5-fluoro-N4-(3-oxo-2H,4H-benz[1,4]oxazin-6-yl)-2,4-pyrimidinediamine]

IC50 [1, 8]: > 10 µM
IC50 [2, 9]: > 10 µM
Structure (SMILES): COc1cc(Nc2nc(Nc3ccc4oc(C(=O)O)cc4c3)ncc2F)cc(OC)c1 [Compound 382]

IC50 [1, 8]: < 10 µM
IC50 [2, 9]: > 10 µM
Structure (SMILES): Cc1cc(C)cc(Nc2ncc(F)c(N(C)c3ccc4c(c3)OCCO4)n2)c1 [Compound 387]

IC50 [1, 8]: > 10 µM
IC50 [2, 9]: > 10 µM
Structure (SMILES): COc1cc(Nc2ncc(F)c(N(C)c3ccc4c(c3)NC(=O)C(C)(C)O4)n2)cc(OC)c1 [Compound 388]

IC50 [1, 8]: < 10 µM
IC50 [2, 9]: < 10 µM
Structure (SMILES): Cc1cc(C)cc(Nc2ncc(F)c(N(C)c3ccc4c(c3)N(C)C(=O)C(C)(C)O4)n2)c1 [Compound 391]

IC50 [1, 8]: < 10 µM
IC50 [2, 9]: < 10 µM
Structure (SMILES): COc1ccc(Nc2ncc(F)c(N(C)c3ccc4c(c3)N(C)C(=O)C(C)(C)O4)n2)cc1Cl [Compound 392]

IC50 [1, 8]: < 10 µM
IC50 [2, 9]: < 10 µM
Structure (SMILES): COc1cc(Nc2ncc(F)c(N(C)c3ccc4c(c3)N(C)C(=O)C(C)(C)O4)n2)cc(OC)c1 [Compound 393]

IC50 [1, 8]: < 10 µM
IC50 [1, 11]: < 10 µM
IC50 [2, 9]: < 10 µM
Structure (SMILES): Cc1cc(C)cc(Nc2ncc(F)c(Nc3ccc4c(c3)N(C)C(=O)C(C)(C)O4)n2)c1 [Compound 396]
